Source: patent US6432405B1, “Method of inhibiting HIV infection with CD44 and anti-CD44 antibodies” (Duke University, priority 1991, dated 2002)
“Also recorded” adds a separate entry of the source.

Columns and labels:
[1] = tested on: HIV-1Ba.L; assay: HIV-1 infection of human monocytes in vitro (cytopathology/polykaryon formation, supernatant reverse transcriptase); assay type: cell-based; conditions: for effect on HIV-1-induced cytopathology and supernatant RT (in words): human monocytes inoculated with HIV-1Ba.L, three weeks of culture
Source text: This aspect of the present invention provides a new method, based on a separate molecular pathway, of blocking HIV infection. The invention is based, at least in part, on Applicants' observation that CD44 (the hyaluronate receptor) facilitates HIV infection/expression in human cells. When this molecule is “blocked”by binding to the anti-CD44 antibody […] or AlG3, there is a 40-80% reduction of HIV infection/expression in normal human monocytes in vitro, as determined by inhibition of monocyte polykaryon formation and expression of viral reverse transcriptase in supernatant medium. […] To determine the importance of other monocyte cellular surface molecules in in vitro infection with HIV-1, the abilities of various murine monoclonal antibodies directed toward different monocyte membrane antigens to influence HIV-1 infection of human monocytes in vitro were determined. Monocytes from normal people were isolated by density gradients, adherence, and washing. Cells were inoculated with HIV-1Ba.L. […] three weeks of culture for reverse transcriptase (RT) activity, and the plates were examined morphologically. Antibodies AlG3 and […]

[2] = tested on: PBMC (T cells); assay: T cell activation assay: CD2 mAb-stimulated PBMC proliferation; assay type: cell-based, human; conditions: compared to the results with CD44 liposomes; data not shown
Method: CD44 (A3D8) and control YgGl (P3X63/Ag8) antibodies were conjugated to CNBr-activated SEPHAROSE CL 4B (Pharmacia, Piscataway, N.J.) (3.0 mg IgG/ml gel). HuT 78 T Cell (CD44+) lysate was solubilized from 5×10^9 cells in 50 ml buffer (300 mM NaCl, 10 mM Na2HPO4 pH 7.4, 0.2% NaN3w/v 0.5% NP-40 v/v), 0.01% Tween 80 w/v, 0.2 mM phenylmethylsulfonyl fluoride, and 0.1 mM tosyl L-lysine chloromethyl ketone) (0° C.×30 min), centrifuged (4° C. 3000×g×15 min, 23420 ×g×30 min) filtered, precleared×2 over a P3-SEPHAROSE column, and allowed to bind overnight (4° C.) to A3D8-SEPHAROSE. The column was washed with 5 column volumes equilibration buffer, followed by 5 column volumes of 50 mM Tris, pH 7.4, 0.5% NP-40. NP-40 was exchanged for octyl glucoside (OG) (Sigma, St. Louis, Mo.) by washing with 2 column volumes 50 mM Tris pH 7.4, 1.5% OG w/v. […]
Liposomes were prepared by the method of Mimms et al ((1981) Biochemistry 20:833-840), using 1 μM purified CD44 or control glycophorin protein, 1 nM L-α-dioleoyl lecthin (Avanti Polar Lipids, Birmingham, Ala.), and 240 nM OG. Liposomes were analyzed for content of the appropriate protein using a novel labelling technique and flow cytometry. […] Fluoresceinated liposome-bead conjugates were then analyzed by flow cytometry. […]

Substance	effect on HIV-1-induced cytopathology and supernatant RT (in words) [1]	effect on CD2 stimulated PBMC cultures (in words) [2]	reduction/inhibition of HIV infection/expression ([1]; normal human monocytes in vitro, by inhibition of monocyte polykaryon formation and viral reverse transcriptase in supernatant medium)
Chondroitin sulfate	no effect; also recorded: no or minimal inhibitory activity	–	–
soluble, free CD44 protein: CD44 protein affinity-purified from HuT 78 T cell lysate on A3D8-Sepharose, 80-85 kD	–	Identical results	–
hyaluronic acid [hyaluronate]	diminished morphological changes and RT expression	–	up to 85%
